From patent publication US20210290648A1, “Potentiation of B-Lactam Antibiotics and B-Lactam/B-Lactamase Inhibitor Combinations Against Multidrug and Extensively Drug-Resistant Pseudomonas Aeruginosa Using Non-Ribosomal Tobramycin-Cyclam Conjugates” (University of Manitoba, priority 2018, published 2021)
Like-named read-outs stand apart in the source and are kept apart here.

Legend:
[1] = system: β-lactamase-harboring MDR P. aeruginosa clinical isolates; assay: Triple combination susceptibility (β-lactam + avibactam + compound 2); format: cell-based, Pseudomonas aeruginosa
From the text: The diazabicyclooctane β-lactamase inhibitor, avibactam, is able to inhibit a wide range of serine β-lactamases (class A, C, and D) but not metallo-β-lactamases (class B) (50, 51).^50,51 However, the high concentration of avibactam required to neutralize the effects of β-lactamase enzymes in these phenotypes is indicative of concomitant permeability barriers in the isolates, such as reduced porin uptake. […] The results of this study are shown in (FIG. 6). All isolates were resistant to all three β-lactam antibiotics used for the study. […] As expected, the study with meropenem was slightly different from others.
Antimicrobial Susceptibility Assay. The in vitro antimicrobial activity of all compounds/antibiotics against a panel of bacteria was evaluated by microbroth dilution method in accordance with the Clinical and Laboratory Standards Institute (CLSI) guidelines. Overnight grown bacterial cultures were diluted in saline to achieve a 0.5 McFarland turbidity, followed by 1:50 dilution in Mueller-Hinton broth (MHB) for inoculation to a final concentration of approximately 5×10^5CFU/mL. The antimicrobial agents were 2-fold serially diluted in MHB in a 96-well plate and incubated at 37° C. with equal volumes of inoculum for 18 h. The lowest concentration that prevented the visible growth of bacteria was defined as the MIC for each antimicrobial agent. The broth with or without bacterial cells was used as positive or negative control, respectively.
Checkerboard Assay. Combination studies with different antibiotics were performed in 96-well plates as previously described (22). Briefly, the antibiotic of interest was serially diluted in MHB along the abscissa while the adjuvant (newly synthesized conjugates) was serially diluted in MHB along the ordinate. This creates a 10×7 matrix wherein each well consists of a combination of different antibiotic and adjuvant concentrations. Overnight grown bacterial cultures were diluted in saline to achieve a 0.5 McFarland turbidity, followed by 1:50 dilution in Mueller-Hinton broth (MHB) for inoculation to a final concentration of approximately 5×10^5CFU/mL. Equal volume of this bacterial culture was then added to each well and incubated at 37° C. for 18 h. After incubation, the plates were read on EMax® Plus microplate reader (Molecular Devices, Sunnyvale, Calif., USA) at 590 nm. MIC was recorded as wells with the lowest concentration of drugs with no bacterial growth. The fractional inhibitory concentration (FIC) for each antibiotic was calculated by dividing the MIC of the antibiotic in the presence of adjuvant by the MIC of the antibiotic alone. Similarly, the FIC of adjuvant was calculated by dividing the MIC of the adjuvant in the presence of antibiotic by the MIC of the adjuvant alone. FIC index is the sum of both FICs. FIC indices of <0.5 were deemed synergistic; 0.5-4, no interaction; and >4, antagonistic.

WT P. aeruginosa PAO1 = assay: Checkerboard combination study / MIC; format: cell-based, Pseudomonas aeruginosa; conditions: for MIC: Pseudomonas aeruginosa; for FICI in the presence of ≤10 μM of 1: antibiotic + compound 1; for FICI in the presence of ≤10 μM of 1 / MIC of Antibiotics in the presence of ≤10 μM of 1 / FICI in the presence of ≤10 μM of 2 / MIC of Antibiotics in the presence of ≤10 μM of 2 / FICI in the presence of ≤10 μM of 3 / MIC of Antibiotics in the presence of ≤10 μM of 3 / FICI with compounds 1-3: WT PAO1; for MIC of Antibiotics in the presence of ≤10 μM of 1: antibiotic + compound 1 ≤10 μM; for FICI in the presence of ≤10 μM of 2: antibiotic + compound 2; for MIC of Antibiotics in the presence of ≤10 μM of 2: antibiotic + compound 2 ≤10 μM; for FICI in the presence of ≤10 μM of 3: antibiotic + compound 3; for MIC of Antibiotics in the presence of ≤10 μM of 3: antibiotic + compound 3 ≤10 μM; for FICI with compounds 1-3: antibiotic + compounds 1-3 at ≤10 μM (≤16 μg/mL)
[2] = PAO1, 18 h, antibiotic alone, WT PAO1 (Table 2), read-out: MIC alone

| Structure (SMILES) | concentration that completely reverses resistance to ceftazidime and aztreonam ([1]; 16-64 μM, not meropenem) [µg/mL] | isolates reaching aztreonam susceptibility breakpoint (≤8 μg/ml) ([1]; aztreonam + single adjuvant 8 μM) | isolates reaching ceftazidime susceptibility breakpoint (≤8 μg/ml) ([1]; ceftazidime + single adjuvant 8 μM) | isolates reaching meropenem susceptibility level ([1]; meropenem + single adjuvant 8 μM) | potentiation of ceftazidime ([1]; single adjuvant at 8 μM, five isolates) | MIC (WT P. aeruginosa PAO1; [2]) [µg/mL] | FICI in the presence of ≤10 μM of 1 (WT P. aeruginosa PAO1) | MIC of Antibiotics in the presence of ≤10 μM of 1 (WT P. aeruginosa PAO1) [µg/mL] | FICI in the presence of ≤10 μM of 2 (WT P. aeruginosa PAO1) | MIC of Antibiotics in the presence of ≤10 μM of 2 (WT P. aeruginosa PAO1) [µg/mL] | FICI in the presence of ≤10 μM of 3 (WT P. aeruginosa PAO1) | MIC of Antibiotics in the presence of ≤10 μM of 3 (WT P. aeruginosa PAO1) [µg/mL] | FICI with compounds 1-3 (WT P. aeruginosa PAO1) | MIC (WT P. aeruginosa PAO1; PAO1, read-out: MIC alone) [µg/mL] | MIC (WT P. aeruginosa PAO1; PAO1, 18 h, read-out: MIC alone) [µg/mL] |
| --- | --- | --- | --- | --- | --- | --- | --- | --- | --- | --- | --- | --- | --- | --- | --- |
| NC(=O)[C@@H]1CC[C@@H]2CN1C(=O)N2OS(=O)(=O)O [Avibactam] | 4 to 16 | three out of five | four out of five | one of five | 4-16 fold | – | – | – | – | – | – | – | – | – | – |
| O=C(N[C@H](CO)[C@H](O)c1ccc([N+](=O)[O-])cc1)C(Cl)Cl [Chloramphenicol] | – | – | – | – | – | 32 | 0.25 | 8 | 0.13 | 4 | 0.25 | 8 | – | – | – |
| CCC[C@@H]1C[C@@H](C(=O)N[C@@H]([C@H]2O[C@H](SC)[C@H](O)[C@@H](O)[C@H]2O)[C@H](C)Cl)N(C)C1 [Clindamycin] | – | – | – | – | – | 1020 | 0.50 | 512 | 0.51 | 512 | 0.07 | 64 | – | – | – |
| C[C@H]1c2cccc(O)c2C(=O)C2=C(O)[C@]3(O)C(=O)C(C(N)=O)=C(O)[C@@H](N(C)C)[C@@H]3[C@@H](O)[C@@H]21 [Doxycycline] | – | – | – | – | – | 8 | 0.50 | 4 | 0.13 | 1 | 0.08 | 0.5 | – | – | – |
| CC[C@H]1OC(=O)[C@H](C)[C@@H](O[C@H]2C[C@@](C)(OC)[C@@H](O)[C@H](C)O2)[C@H](C)[C@@H](O[C@@H]2O[C@H](C)C[C@H](N(C)C)[C@H]2O)[C@](C)(O)C[C@@H](C)C(=O)[C@H](C)[C@@H](O)[C@]1(C)O [Erythromycin] | – | – | – | – | – | 512 | 0.50 | – | 0.50 | – | 0.25 | – | – | – | – |
| C[C@@H]1O[C@@H]1P(=O)(O)O [Fosfomycin] | – | – | – | – | – | 16 | 0.51 | 8 | 0.50 | 8 | 1.02 | 16 | – | – | – |
| CC(=O)NC[C@H]1CN(c2ccc(N3CCOCC3)c(F)c2)C(=O)O1 [Linezolid] | – | – | – | – | – | 1020 | 1.00 | 1024 | 0.26 | 256 | 0.25 | 256 | – | – | – |
| CN(C)c1ccc(O)c2c1C[C@H]1C[C@H]3[C@H](N(C)C)C(O)=C(C(N)=O)C(=O)[C@@]3(O)C(O)=C1C2=O [Minocycline] | – | – | – | – | – | 8 | 0.25 | 2 | 0.25 | 2 | 0.17 | 1 | – | – | – |
| COc1c(N2C[C@@H]3CCCN[C@@H]3C2)c(F)cc2c(=O)c(C(=O)O)cn(C3CC3)c12 [Moxifloxacin] | – | – | – | – | – | 1 | 1.00 | 1 | 0.51 | 0.5 | 1.01 | 1 | – | – | – |
| O=C1CN(/N=C/c2ccc([N+](=O)[O-])o2)C(=O)N1 [Nitrofurantoin] | – | – | – | – | – | 1020 | 1.00 | 1024 | 1.00 | 1024 | 1.02 | 1024 | 1 | – | – |
| CO[C@@H]1[C@@H](OC(N)=O)[C@@H](O)[C@H](Oc2ccc3c(O)c(NC(=O)c4ccc(O)c(CC=C(C)C)c4)c(=O)oc3c2C)OC1(C)C [Novobiocin] | – | – | – | – | – | 512 | 0.13 | 64 | 0.13 | 64 | 0.08 | 32 | 0.08-0.13 | – | – |
| C=C[C@]1(C)C[C@@H](OC(=O)CO)[C@]2(C)[C@H](C)CC[C@]3(CCC(=O)[C@H]32)[C@@H](C)[C@@H]1O [Pleuromutilin] | – | – | – | – | – | 512 | 1.00 | 512 | 1.00 | 512 | 0.25 | 128 | – | – | – |
| CO[C@H]1/C=C/O[C@@]2(C)Oc3c(C)c(O)c4c(O)c(c(/C=N/N5CCN(C)CC5)c(O)c4c3C2=O)NC(=O)/C(C)=C\C=C\[C@H](C)[C@H](O)[C@@H](C)[C@@H](O)[C@@H](C)[C@H](OC(C)=O)[C@@H]1C [Rifampicin] | – | – | – | – | – | 16 | 0.13 | 2 | 0.13 | 2 | 0.25 | 4 | 0.13-0.25 | – | – |
| CN(C)c1cc(NC(=O)CNC(C)(C)C)c(O)c2c1C[C@H]1C[C@H]3[C@H](N(C)C)C(O)=C(C(N)=O)C(=O)[C@@]3(O)C(O)=C1C2=O [Tigecycline] | – | – | – | – | – | – | 0.25 | 2 | 0.50 | 2 | 0.52 | 2 | – | 4 | – |
| COc1cc(Cc2cnc(N)nc2N)cc(OC)c1OC [Trimethoprim] | – | – | – | – | – | 64 | 0.50 | 32 | 0.50 | 32 | 0.50 | 32 | – | – | – |
| CN[C@H](CC(C)C)C(=O)N[C@H]1C(=O)N[C@@H](CC(N)=O)C(=O)N[C@H]2C(=O)N[C@H]3C(=O)N[C@H](C(=O)N[C@H](C(=O)O)c4cc(O)cc(O)c4-c4cc3ccc4O)[C@H](O)c3ccc(c(Cl)c3)Oc3cc2cc(c3O[C@@H]2O[C@H](CO)[C@@H](O)[C@H](O)[C@H]2O[C@H]2C[C@](C)(N)[C@H](O)[C@H](C)O2)Oc2ccc(cc2Cl)[C@H]1O [Vancomycin] | – | – | – | – | – | – | 0.50 | 128 | 0.26 | 64 | 0.50 | 128 | – | – | 256 |
